{
  "source": "ChEMBL document CHEMBL4800722",
  "about": "“Data for DCP probe BI 605906” (2021)",
  "key": {"[1]": {"molecular_target": "Lymphokine-activated killer T-cell-originated protein kinase (Homo sapiens) (UniProt Q96KB5)", "conditions": "Compound concentration 10.0 uM"}, "[2]": {"molecular_target": "Serine/threonine-protein kinase tousled-like 1 (Homo sapiens) (UniProt Q9UKI8)", "conditions": "Compound concentration 1.0 uM"}, "[3]": {"molecular_target": "Serine/threonine-protein kinase 33 (Homo sapiens) (UniProt Q9BYT3)", "test": "STK33 Invitrogen Lab (UK) kinase screen (BI)", "conditions": "Compound concentration 1.0 uM"}, "[4]": {"molecular_target": "MAP kinase-activated protein kinase 3 (Homo sapiens) (UniProt Q16644)", "test": "MAPKAP-K3 DUNDEE kinase screen (BI)", "conditions": "Compound concentration 10.0 uM"}, "[5]": {"molecular_target": "Dual specificity mitogen-activated protein kinase kinase 4 (Homo sapiens) (UniProt P45985)", "test": "MAP2K4 Invitrogen Lab (UK) kinase screen (BI)", "conditions": "Compound concentration 1.0 uM"}, "[6]": {"molecular_target": "AMP-activated protein kinase, AMPK (Rattus norvegicus) (UniProt P54645+Q09137+P80386+P80385+Q9QZH4+Q6V7V4+D4A7E4)", "test": "AMPK DUNDEE kinase screen (BI)", "format": "protein-complex assay", "conditions": "Compound concentration 10.0 uM"}, "[7]": {"molecular_target": "5-hydroxytryptamine receptor 3A (Homo sapiens) (UniProt P46098)", "conditions": "Compound concentration 10.0 uM"}, "[8]": {"molecular_target": "MAP kinase-activated protein kinase 2 (Homo sapiens) (UniProt P49137)", "sequence (P49137 whole entry, looked up)": "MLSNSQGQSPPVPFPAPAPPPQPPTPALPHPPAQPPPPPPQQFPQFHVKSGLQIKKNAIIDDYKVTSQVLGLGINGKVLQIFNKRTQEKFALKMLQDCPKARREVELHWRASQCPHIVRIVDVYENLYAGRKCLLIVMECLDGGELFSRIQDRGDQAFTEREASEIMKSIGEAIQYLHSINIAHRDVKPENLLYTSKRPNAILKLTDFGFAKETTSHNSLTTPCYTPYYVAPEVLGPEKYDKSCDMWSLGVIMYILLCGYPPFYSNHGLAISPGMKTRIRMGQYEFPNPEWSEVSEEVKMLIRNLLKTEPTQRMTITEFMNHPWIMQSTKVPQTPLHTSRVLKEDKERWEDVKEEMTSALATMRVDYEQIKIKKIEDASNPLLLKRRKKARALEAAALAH"}, "[9]": {"molecular_target": "MAP kinase-interacting serine/threonine-protein kinase 1 (Homo sapiens) (UniProt Q9BUB5)", "test": "MNK1 DUNDEE kinase screen (BI)", "conditions": "Compound concentration 10.0 uM"}, "[10]": {"molecular_target": "Mitogen-activated protein kinase 14 (Homo sapiens) (UniProt Q16539)", "sequence (Q16539 whole entry)": "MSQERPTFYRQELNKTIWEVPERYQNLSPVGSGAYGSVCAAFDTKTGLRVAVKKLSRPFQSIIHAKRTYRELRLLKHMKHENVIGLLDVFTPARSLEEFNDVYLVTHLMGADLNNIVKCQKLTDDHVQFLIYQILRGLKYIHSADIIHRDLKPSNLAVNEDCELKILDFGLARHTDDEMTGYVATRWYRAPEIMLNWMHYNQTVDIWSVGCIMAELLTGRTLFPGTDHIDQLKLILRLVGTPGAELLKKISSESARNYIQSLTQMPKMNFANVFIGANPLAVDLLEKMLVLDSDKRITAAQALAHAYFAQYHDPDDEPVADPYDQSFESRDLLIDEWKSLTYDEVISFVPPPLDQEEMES"}, "[11]": {"molecular_target": "Myosin light chain kinase, smooth muscle (Homo sapiens) (UniProt Q15746)", "conditions": "Compound concentration 1.0 uM"}, "[12]": {"molecular_target": "PI3-kinase p110-delta/p85-alpha (Homo sapiens) (UniProt P27986+O00329)", "conditions": "Compound concentration 1.0 uM"}, "[13]": {"molecular_target": "5-hydroxytryptamine receptor 4 (Cavia porcellus) (UniProt O70528)", "conditions": "Compound concentration 10.0 uM"}, "[14]": {"molecular_target": "Endothelin-converting enzyme 1 (Homo sapiens) (UniProt P42892)", "conditions": "Compound concentration 10.0 uM"}, "[15]": {"molecular_target": "Dual specificity tyrosine-phosphorylation-regulated kinase 2 (Homo sapiens) (UniProt Q92630)", "test": "DYRK2 Invitrogen Lab (UK) kinase screen (BI)", "conditions": "Compound concentration 1.0 uM"}, "[16]": {"molecular_target": "Dual specificity tyrosine-phosphorylation-regulated kinase 1A (Homo sapiens) (UniProt Q13627)", "test": "DYRK1A DUNDEE kinase screen (BI)", "conditions": "Rattus norvegicus; Compound concentration 10.0 uM"}, "[17]": {"test": "GPCRScan assay: inhibition of GABA/PBR", "set-up": "species or system Rattus norvegicus; radioligand conc. used [nm] 0.3 – 2.0, parental cells brain tissue"}, "[18]": {"molecular_target": "Serine/threonine-protein kinase 38 (Homo sapiens) (UniProt Q15208)", "test": "STK38 (NDR) Invitrogen Lab (UK) kinase screen (BI)", "conditions": "Compound concentration 1.0 uM"}, "[19]": {"molecular_target": "STE20-like serine/threonine-protein kinase (Homo sapiens) (UniProt Q9H2G2)", "conditions": "Compound concentration 1.0 uM"}, "[20]": {"molecular_target": "Receptor-interacting serine/threonine-protein kinase 2 (Homo sapiens) (UniProt O43353)", "conditions": "Compound concentration 1.0 uM"}, "[21]": {"molecular_target": "Serine/threonine-protein kinase pim-1 (Homo sapiens) (UniProt P11309)", "sequence (P11309 whole entry, looked up)": "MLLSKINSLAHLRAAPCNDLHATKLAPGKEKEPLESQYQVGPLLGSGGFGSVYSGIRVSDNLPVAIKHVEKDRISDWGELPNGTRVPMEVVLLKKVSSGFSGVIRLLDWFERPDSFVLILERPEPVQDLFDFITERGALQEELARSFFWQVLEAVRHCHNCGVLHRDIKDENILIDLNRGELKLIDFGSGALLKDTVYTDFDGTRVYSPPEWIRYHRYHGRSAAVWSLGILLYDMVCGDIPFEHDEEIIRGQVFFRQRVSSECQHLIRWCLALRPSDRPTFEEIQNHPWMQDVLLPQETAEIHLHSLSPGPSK"}, "[22]": {"molecular_target": "Serine/threonine-protein kinase PLK2 (Homo sapiens) (UniProt Q9NYY3)", "conditions": "Compound concentration 1.0 uM"}, "[23]": {"molecular_target": "Serine/threonine-protein kinase 25 (Homo sapiens) (UniProt O00506)", "conditions": "Compound concentration 1.0 uM"}, "[24]": {"molecular_target": "Ribosomal protein S6 kinase alpha-3 (Homo sapiens) (UniProt P51812)", "sequence (P51812 whole entry)": "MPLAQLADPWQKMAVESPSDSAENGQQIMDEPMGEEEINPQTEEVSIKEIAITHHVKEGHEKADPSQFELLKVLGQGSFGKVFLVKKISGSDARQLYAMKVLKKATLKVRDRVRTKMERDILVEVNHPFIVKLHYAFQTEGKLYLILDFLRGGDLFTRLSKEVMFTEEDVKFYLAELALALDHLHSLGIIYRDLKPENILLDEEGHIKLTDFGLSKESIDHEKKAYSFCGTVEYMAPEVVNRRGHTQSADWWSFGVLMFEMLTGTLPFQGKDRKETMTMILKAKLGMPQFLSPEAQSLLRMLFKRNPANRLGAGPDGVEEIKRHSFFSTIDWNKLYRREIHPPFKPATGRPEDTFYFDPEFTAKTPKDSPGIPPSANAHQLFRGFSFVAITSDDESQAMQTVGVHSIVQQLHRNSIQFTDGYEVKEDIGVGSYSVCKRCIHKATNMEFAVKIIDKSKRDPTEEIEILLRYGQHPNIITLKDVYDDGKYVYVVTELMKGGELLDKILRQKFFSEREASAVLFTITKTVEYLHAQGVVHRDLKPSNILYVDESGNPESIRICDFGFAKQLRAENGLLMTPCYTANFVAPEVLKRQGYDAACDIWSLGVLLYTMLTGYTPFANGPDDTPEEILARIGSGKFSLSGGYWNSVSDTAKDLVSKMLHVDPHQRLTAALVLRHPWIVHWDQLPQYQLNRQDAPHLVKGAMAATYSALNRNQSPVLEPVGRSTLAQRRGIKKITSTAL"}, "[25]": {"molecular_target": "Protein kinase C eta type (Homo sapiens) (UniProt P24723)", "conditions": "Compound concentration 1.0 uM"}, "[26]": {"molecular_target": "Calcium/calmodulin-dependent protein kinase type II subunit beta (Homo sapiens) (UniProt Q13554)", "conditions": "Compound concentration 1.0 uM"}, "[27]": {"molecular_target": "Serine/threonine-protein kinase/endoribonuclease IRE2 (Homo sapiens) (UniProt Q76MJ5)", "test": "ERN2 Invitrogen Lab (UK) kinase screen (BI)", "conditions": "Compound concentration 1.0 uM"}, "[28]": {"molecular_target": "Serine/threonine-protein kinase 26 (Homo sapiens) (UniProt Q9P289)", "conditions": "Compound concentration 1.0 uM"}, "[29]": {"molecular_target": "Neutrophil elastase (Homo sapiens) (UniProt P08246)", "conditions": "Compound concentration 10.0 uM"}, "[30]": {"molecular_target": "Sphingosine kinase 1 (Homo sapiens) (UniProt Q9NYA1)", "test": "SPHK1 Invitrogen Lab (UK) kinase screen (BI)", "conditions": "Compound concentration 1.0 uM"}, "[31]": {"molecular_target": "Mitogen-activated protein kinase 13 (Homo sapiens) (UniProt O15264)", "conditions": "Compound concentration 1.0 uM"}, "[32]": {"molecular_target": "Hepatocyte growth factor receptor (Homo sapiens) (UniProt P08581)", "sequence (P08581 whole entry)": "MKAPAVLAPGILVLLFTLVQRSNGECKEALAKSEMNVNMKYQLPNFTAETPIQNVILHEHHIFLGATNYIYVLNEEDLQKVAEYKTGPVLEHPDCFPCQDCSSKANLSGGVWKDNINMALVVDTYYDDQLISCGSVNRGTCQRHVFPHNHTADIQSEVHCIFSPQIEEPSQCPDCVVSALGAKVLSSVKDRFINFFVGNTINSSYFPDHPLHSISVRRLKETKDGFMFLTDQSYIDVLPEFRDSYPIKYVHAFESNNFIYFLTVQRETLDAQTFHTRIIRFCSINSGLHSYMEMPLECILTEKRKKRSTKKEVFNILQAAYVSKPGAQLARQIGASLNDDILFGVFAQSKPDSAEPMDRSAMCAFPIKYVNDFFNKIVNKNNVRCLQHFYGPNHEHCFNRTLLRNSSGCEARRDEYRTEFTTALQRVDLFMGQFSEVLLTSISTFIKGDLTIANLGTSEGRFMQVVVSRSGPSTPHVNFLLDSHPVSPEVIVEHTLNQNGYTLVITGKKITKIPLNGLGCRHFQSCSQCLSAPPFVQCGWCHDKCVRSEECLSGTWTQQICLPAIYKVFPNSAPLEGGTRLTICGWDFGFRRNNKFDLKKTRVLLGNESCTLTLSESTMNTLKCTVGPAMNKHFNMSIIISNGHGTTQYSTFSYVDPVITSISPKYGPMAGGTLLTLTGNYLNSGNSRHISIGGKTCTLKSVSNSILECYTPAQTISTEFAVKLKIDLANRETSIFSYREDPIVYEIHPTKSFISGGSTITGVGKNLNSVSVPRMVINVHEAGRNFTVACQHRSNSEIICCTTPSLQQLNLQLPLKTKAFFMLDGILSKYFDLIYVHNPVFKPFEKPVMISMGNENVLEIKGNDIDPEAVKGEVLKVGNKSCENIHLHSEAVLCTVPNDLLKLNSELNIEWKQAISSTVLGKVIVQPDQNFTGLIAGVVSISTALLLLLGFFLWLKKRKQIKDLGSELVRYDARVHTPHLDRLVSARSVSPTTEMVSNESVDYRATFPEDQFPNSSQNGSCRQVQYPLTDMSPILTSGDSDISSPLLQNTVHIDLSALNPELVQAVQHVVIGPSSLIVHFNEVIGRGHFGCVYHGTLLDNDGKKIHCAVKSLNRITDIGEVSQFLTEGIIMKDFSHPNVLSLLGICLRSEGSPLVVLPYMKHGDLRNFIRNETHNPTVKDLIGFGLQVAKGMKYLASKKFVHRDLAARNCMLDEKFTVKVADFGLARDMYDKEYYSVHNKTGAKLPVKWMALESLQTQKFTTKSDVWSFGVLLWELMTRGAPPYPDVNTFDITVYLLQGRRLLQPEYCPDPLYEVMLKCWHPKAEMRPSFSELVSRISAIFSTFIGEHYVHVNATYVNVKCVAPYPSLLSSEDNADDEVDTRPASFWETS"}, "[33]": {"molecular_target": "Tyrosine-protein kinase HCK (Homo sapiens) (UniProt P08631)", "conditions": "Compound concentration 1.0 uM"}, "[34]": {"molecular_target": "Vascular endothelial growth factor receptor 2 (Homo sapiens) (UniProt P35968)", "sequence (P35968 whole entry)": "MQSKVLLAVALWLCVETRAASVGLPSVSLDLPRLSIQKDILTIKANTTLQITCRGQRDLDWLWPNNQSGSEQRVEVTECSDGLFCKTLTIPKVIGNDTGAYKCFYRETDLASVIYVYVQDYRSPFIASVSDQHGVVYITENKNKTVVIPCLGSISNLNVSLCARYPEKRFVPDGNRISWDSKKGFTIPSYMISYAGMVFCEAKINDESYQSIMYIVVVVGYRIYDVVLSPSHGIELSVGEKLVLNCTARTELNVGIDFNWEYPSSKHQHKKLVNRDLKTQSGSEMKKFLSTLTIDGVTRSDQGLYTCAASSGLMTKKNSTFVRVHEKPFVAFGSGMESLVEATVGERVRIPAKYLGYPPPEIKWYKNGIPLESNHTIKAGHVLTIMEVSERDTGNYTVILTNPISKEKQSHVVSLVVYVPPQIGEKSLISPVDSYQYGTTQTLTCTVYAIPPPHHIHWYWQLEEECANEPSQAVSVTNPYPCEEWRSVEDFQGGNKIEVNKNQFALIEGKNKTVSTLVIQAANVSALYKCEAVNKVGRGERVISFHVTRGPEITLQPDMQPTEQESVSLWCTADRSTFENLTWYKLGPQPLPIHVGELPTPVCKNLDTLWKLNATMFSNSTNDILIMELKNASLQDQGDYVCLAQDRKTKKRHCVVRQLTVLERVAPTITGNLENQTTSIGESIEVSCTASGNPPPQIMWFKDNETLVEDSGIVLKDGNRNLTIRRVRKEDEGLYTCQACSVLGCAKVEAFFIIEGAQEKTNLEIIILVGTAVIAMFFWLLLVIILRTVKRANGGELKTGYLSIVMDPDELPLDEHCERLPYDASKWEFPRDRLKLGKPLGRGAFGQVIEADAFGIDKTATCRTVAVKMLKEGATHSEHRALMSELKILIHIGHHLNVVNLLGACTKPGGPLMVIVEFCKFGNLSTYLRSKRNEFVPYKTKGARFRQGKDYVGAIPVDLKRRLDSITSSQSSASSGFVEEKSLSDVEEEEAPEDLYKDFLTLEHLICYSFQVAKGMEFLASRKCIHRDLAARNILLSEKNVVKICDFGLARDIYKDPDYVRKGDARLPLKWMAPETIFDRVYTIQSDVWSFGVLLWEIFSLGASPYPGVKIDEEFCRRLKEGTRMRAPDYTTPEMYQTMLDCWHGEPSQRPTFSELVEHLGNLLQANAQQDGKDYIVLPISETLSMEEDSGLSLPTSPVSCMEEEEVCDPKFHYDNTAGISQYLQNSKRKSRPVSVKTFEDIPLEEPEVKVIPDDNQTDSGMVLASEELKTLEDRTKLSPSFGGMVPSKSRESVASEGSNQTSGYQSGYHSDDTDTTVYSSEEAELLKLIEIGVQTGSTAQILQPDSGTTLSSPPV"}, "[35]": {"molecular_target": "Homeodomain-interacting protein kinase 3 (Homo sapiens) (UniProt Q9H422)", "conditions": "Compound concentration 1.0 uM"}, "[36]": {"molecular_target": "Type-1 angiotensin II receptor (Homo sapiens) (UniProt P30556)", "sequence (P30556 whole entry)": "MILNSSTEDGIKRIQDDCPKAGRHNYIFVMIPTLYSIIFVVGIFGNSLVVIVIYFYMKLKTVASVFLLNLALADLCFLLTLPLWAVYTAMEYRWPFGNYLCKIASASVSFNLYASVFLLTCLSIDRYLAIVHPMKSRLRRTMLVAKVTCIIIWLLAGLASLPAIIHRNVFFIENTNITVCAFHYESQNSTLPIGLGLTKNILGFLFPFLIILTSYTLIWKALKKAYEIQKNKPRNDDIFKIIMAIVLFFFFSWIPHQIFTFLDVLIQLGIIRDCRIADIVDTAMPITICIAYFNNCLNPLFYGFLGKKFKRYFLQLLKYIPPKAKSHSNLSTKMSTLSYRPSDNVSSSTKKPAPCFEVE", "test": "AT1 Eurofins SafetyScreen44 (BI)"}, "[37]": {"molecular_target": "Mitogen-activated protein kinase 11 (Homo sapiens) (UniProt Q15759)", "conditions": "Compound concentration 1.0 uM"}, "[38]": {"molecular_target": "Mitogen-activated protein kinase kinase kinase 11 (Homo sapiens) (UniProt Q16584)", "conditions": "Compound concentration 1.0 uM"}, "[39]": {"molecular_target": "TGF-beta receptor type-2 (Homo sapiens) (UniProt P37173)", "conditions": "Compound concentration 1.0 uM"}, "[40]": {"molecular_target": "Muscle, skeletal receptor tyrosine-protein kinase (Homo sapiens) (UniProt O15146)", "test": "MUSK Invitrogen Lab (UK) kinase screen (BI)", "conditions": "Compound concentration 1.0 uM"}, "[41]": {"molecular_target": "Serine/threonine-protein kinase PAK 6 (Homo sapiens) (UniProt Q9NQU5)", "conditions": "Compound concentration 1.0 uM"}, "[42]": {"molecular_target": "Leukotriene A-4 hydrolase (Cavia porcellus) (UniProt P19602)", "conditions": "Compound concentration 10.0 uM"}},
  "data": [
    {"compound": "CCC(F)(F)c1cc(N2CCC(S(C)(=O)=O)CC2)nc2sc(C(N)=O)c(N)c12", "note": "[BI-605906]", "values": [
      {"measurement": "residual activity", "setting": "[1]", "result": 100, "unit": "%"},
      {"measurement": "residual activity", "setting": "[2]", "result": 91, "unit": "%"},
      {"measurement": "residual activity", "setting": "[3]", "result": 88, "unit": "%"},
      {"measurement": "residual activity", "setting": "[4]", "result": 90.2, "unit": "%"},
      {"measurement": "residual activity", "setting": "[5]", "result": 79, "unit": "%"},
      {"measurement": "residual activity", "setting": "[6]", "result": 79.2, "unit": "%"},
      {"measurement": "inhibition", "setting": "[7]", "result": -5.46, "unit": "%"},
      {"measurement": "residual activity", "setting": "[8]; Compound concentration 1.0 uM", "result": 93, "unit": "%"},
      {"measurement": "residual activity", "setting": "[8]; Compound concentration 10.0 uM", "result": 87, "unit": "%"},
      {"measurement": "residual activity", "setting": "[9]", "result": 93.8, "unit": "%"},
      {"measurement": "residual activity", "setting": "[10]; Compound concentration 1.0 uM", "result": 92, "unit": "%"},
      {"measurement": "residual activity", "setting": "[10]; Compound concentration 10.0 uM", "result": 60, "unit": "%"},
      {"measurement": "residual activity", "setting": "[11]", "result": 91, "unit": "%"},
      {"measurement": "residual activity", "setting": "[12]", "result": 87, "unit": "%"},
      {"measurement": "residual activity", "setting": "[13]", "result": 98, "unit": "%"},
      {"measurement": "residual activity", "setting": "[14]", "result": 82, "unit": "%"},
      {"measurement": "residual activity", "setting": "[15]", "result": 62, "unit": "%"},
      {"measurement": "residual activity", "setting": "[16]", "result": 74.9, "unit": "%"},
      {"measurement": "Ki", "setting": "[17]", "result": 2.62, "unit": "µM"},
      {"measurement": "pKi", "setting": "[17]", "result": 5.59},
      {"measurement": "residual activity", "setting": "[18]", "result": 83, "unit": "%"},
      {"measurement": "residual activity", "setting": "[19]", "result": 99, "unit": "%"},
      {"measurement": "residual activity", "setting": "[20]", "result": 94, "unit": "%"},
      {"measurement": "residual activity", "setting": "[21]; Compound concentration 1.0 uM", "result": 90, "unit": "%"},
      {"measurement": "residual activity", "setting": "[21]; Compound concentration 10.0 uM", "result": 99, "unit": "%"},
      {"measurement": "residual activity", "setting": "[22]", "result": 96, "unit": "%"},
      {"measurement": "residual activity", "setting": "[23]", "result": 100, "unit": "%"},
      {"measurement": "residual activity", "setting": "[24]; Compound concentration 1.0 uM", "result": 94, "unit": "%"},
      {"measurement": "residual activity", "setting": "[24]; Compound concentration 10.0 uM", "result": 95, "unit": "%"},
      {"measurement": "residual activity", "setting": "[25]", "result": 100, "unit": "%"},
      {"measurement": "residual activity", "setting": "[26]", "result": 99, "unit": "%"},
      {"measurement": "residual activity", "setting": "[27]", "result": 102, "unit": "%"},
      {"measurement": "residual activity", "setting": "[28]", "result": 109, "unit": "%"},
      {"measurement": "residual activity", "setting": "[29]", "result": 98, "unit": "%"},
      {"measurement": "residual activity", "setting": "[30]", "result": 81, "unit": "%"},
      {"measurement": "residual activity", "setting": "[31]", "result": 94, "unit": "%"},
      {"measurement": "residual activity", "setting": "[32]; Compound concentration 1.0 uM", "result": 103, "unit": "%"},
      {"measurement": "residual activity", "setting": "[32]; Compound concentration 10.0 uM", "result": 90, "unit": "%"},
      {"measurement": "residual activity", "setting": "[33]", "result": 90, "unit": "%"},
      {"measurement": "residual activity", "setting": "[34]; Compound concentration 1.0 uM", "result": 98, "unit": "%"},
      {"measurement": "residual activity", "setting": "[34]; Compound concentration 10.0 uM", "result": 79, "unit": "%"},
      {"measurement": "residual activity", "setting": "[35]", "result": 95, "unit": "%"},
      {"measurement": "residual activity", "setting": "[36]; Compound concentration 10.0 uM", "result": 104, "unit": "%"},
      {"measurement": "residual activity", "setting": "[36]; Compound concentration 100.0 uM", "result": 72, "unit": "%"},
      {"measurement": "residual activity", "setting": "[37]", "result": 98, "unit": "%"},
      {"measurement": "residual activity", "setting": "[38]", "result": 95, "unit": "%"},
      {"measurement": "residual activity", "setting": "[39]", "result": 87, "unit": "%"},
      {"measurement": "residual activity", "setting": "[40]", "result": 84, "unit": "%"},
      {"measurement": "residual activity", "setting": "[41]", "result": 105, "unit": "%"},
      {"measurement": "residual activity", "setting": "[42]", "result": 93, "unit": "%"}
    ]}
  ]
}
